This series addresses ABCB1 (P-glycoprotein) (Homo sapiens, UniProt P08183). Kind of series: TP_TRANSPORTER: efflux in Doxorubicin resistant K562 cells.

Our source for the Km values is ChEMBL document CHEMBL2074063, “P-glycoprotein-mediated efflux of hydroxyrubicin, a neutral anthracycline derivative, in resistant K562 cells” (FEBS Lett, 1994).

Chain of ABCB1 (P-glycoprotein) (P08183 whole entry): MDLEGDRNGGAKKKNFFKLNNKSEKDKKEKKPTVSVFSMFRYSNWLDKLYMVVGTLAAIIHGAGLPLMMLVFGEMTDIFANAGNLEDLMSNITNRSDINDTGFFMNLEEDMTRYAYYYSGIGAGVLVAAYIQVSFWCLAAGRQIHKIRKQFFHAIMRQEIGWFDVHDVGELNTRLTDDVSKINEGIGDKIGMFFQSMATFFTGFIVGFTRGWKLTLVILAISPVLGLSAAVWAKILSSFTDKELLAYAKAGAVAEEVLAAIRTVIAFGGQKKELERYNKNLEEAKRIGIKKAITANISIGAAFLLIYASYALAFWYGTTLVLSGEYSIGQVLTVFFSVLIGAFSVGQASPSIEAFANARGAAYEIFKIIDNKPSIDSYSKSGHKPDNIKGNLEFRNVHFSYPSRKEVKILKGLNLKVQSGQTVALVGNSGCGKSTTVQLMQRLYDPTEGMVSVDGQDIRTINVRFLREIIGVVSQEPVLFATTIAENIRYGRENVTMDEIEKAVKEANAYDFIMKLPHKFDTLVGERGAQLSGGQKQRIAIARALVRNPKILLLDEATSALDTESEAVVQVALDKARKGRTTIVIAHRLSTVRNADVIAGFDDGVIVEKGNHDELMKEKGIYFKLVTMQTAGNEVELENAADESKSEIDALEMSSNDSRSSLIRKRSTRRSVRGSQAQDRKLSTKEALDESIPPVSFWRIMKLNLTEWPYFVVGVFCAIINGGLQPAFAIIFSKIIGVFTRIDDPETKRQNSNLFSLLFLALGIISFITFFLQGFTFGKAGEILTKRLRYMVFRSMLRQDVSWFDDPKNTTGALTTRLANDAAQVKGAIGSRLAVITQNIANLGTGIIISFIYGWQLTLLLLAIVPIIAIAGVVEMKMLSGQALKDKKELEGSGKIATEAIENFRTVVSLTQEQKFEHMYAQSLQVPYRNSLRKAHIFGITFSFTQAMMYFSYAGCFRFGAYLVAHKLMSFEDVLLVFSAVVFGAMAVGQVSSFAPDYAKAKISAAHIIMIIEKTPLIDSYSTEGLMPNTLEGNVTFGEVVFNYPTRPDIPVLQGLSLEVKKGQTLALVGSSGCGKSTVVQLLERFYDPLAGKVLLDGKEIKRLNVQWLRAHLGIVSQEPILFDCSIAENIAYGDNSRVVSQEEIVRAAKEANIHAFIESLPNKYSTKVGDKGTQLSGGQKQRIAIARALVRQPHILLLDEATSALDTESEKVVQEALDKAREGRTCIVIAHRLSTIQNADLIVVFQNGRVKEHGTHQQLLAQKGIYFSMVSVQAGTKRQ

Consider `COc1cccc2c1C(=O)c1c(O)c3c(c(O)c1C2=O)C[C@@](O)(C(=O)CO)C[C@@H]3O[C@H]1C[C@H](O)[C@H](O)[C@H](C)O1` [HYDROXYRUBICIN], for which the Km amounted to 2000 nM.

Broadly, the Km is the concentration of substrate that gives half-maximal velocity.
